# Target: T1, human FSH receptor (Homo sapiens, UniProt P23945)
# T1 construct: expressed in transfected cells; host or cells: CHO cells, stably transfected; cotransfected with CRE-luciferase reporter
# T1 sequence (P23945 18-695): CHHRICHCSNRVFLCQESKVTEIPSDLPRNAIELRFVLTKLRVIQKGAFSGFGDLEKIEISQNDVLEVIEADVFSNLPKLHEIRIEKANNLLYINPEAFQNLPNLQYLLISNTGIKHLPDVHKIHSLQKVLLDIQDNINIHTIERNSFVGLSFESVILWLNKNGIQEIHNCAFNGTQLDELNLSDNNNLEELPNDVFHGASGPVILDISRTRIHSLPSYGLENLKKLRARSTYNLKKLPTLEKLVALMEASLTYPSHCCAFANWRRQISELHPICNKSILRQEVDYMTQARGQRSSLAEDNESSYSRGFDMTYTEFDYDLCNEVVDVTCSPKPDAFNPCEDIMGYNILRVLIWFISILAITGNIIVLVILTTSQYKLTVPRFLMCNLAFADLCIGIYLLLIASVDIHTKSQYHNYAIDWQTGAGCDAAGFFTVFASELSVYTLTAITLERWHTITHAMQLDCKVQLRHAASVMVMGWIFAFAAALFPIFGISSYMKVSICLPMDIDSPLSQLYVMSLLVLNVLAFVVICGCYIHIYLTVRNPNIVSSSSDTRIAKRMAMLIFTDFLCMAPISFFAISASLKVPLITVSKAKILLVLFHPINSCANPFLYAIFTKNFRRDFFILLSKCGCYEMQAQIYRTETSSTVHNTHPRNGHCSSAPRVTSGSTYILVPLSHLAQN
# Assay: Antagonistic activity of compounds at the human FSH receptor expressed in CHO cells (CRE-luciferase reporter)
# Assay type: cell-based
# Details: CHO cells stably transfected with human FSH receptor and CRE/luciferase reporter; together with 49 μM recFSH; 4 hours incubation; 1% DMSO; read-out: IC50 (concentration of test compound causing half-maximal inhibition of the maximally attainable inhibition of the luciferase stimulation)
# Protocol: Antagonistic Activity of Compounds at the Human FSH Receptor Expressed in CHO Cells
# Antagonistic activity of the compounds at the human FSH receptor was determined in Chinese Hamster Ovary (CHO) cells stably transfected with the human FSH receptor and cotransfected with a cAMP responsive element (CRE)/promotor directing the expression of a firefly luciferase reporter gene. Binding of the compounds to the Gs protein-coupled FSH receptor will result in an increase of cAMP, which in turn will induce an increased transactivation of the luciferase reporter. The cells (7,500 cells/well of a 384 well plate) were incubated in Dulbecco' minimal essential F12 modified medium (Invitrogen), supplemented with 1 μg/ml bovine insulin, 5 μg/ml human apo-transferrin, 100 U/ml penicillin G and 100 μg/ml streptomycin with the test compounds (concentration between 0.316 nM and 10.0 μM) in duplicate together with […] (which, at this concentration in the absence of test compound, induces 80% of the maximal luciferase stimulation) in a humidified atmosphere (95%) at 5-7% CO2 and 37° C. The final concentration of DMSO was 1%. After 4 hours of incubation, plates were allowed to adjust to room temperature for 1 hour. Then, SteadyLite (PerkinElmer) solution was added to the wells and cells were allowed to lyse for at least 1 hour at room temperature. Subsequently, luciferase activity was measured in a luminescence counter. The signal is expressed as counts per second (cps). The IC50 (concentration of test compound causing half-maximal (50%) inhibition of the maximally attainable inhibition of the luciferase stimulation by the compound) and efficacy of the compounds were determined using the software program MathIQ (version 2.3, ID Business Solutions Limited).
row,Structure (SMILES),IC50 [nM]
1,"COc1cc2c(cc1C(C)C(C)C)-c1cc(C(=O)N[C@@H](CO)Cc3c[nH]c4ccccc34)c(-c3cccc(F)c3)n1CC2 (stereo partly drawn) [Example 44, 3-(3-fluorophenyl)-N—((R)-1-hydroxy-3-(1H-indol-3-yl)propan-2-yl)-8-methoxy-9-(3-methylbutan-2-yl)-5,6-dihydropyrrolo[2,1-a]isoquinoline-2-carboxamide]",< 100
2,"COc1cc(-c2cc3c(cc2OC)CCn2c-3cc(C(=O)N[C@@H](CO)Cc3c[nH]c4ccccc34)c2-c2cccs2)ccn1 [Example 57, (R)—N-(1-hydroxy-3-(1H-indol-3-yl)propan-2-yl)-8-methoxy-9-(2-methoxypyridin-4-yl)-3-(thiophen-2-yl)-5,6-dihydropyrrolo[2,1-a]isoquinoline-2-carboxamide]",< 100
3,"COc1cc2c(cc1-c1cccnc1OC)-c1cc(C(=O)N[C@@H](CO)Cc3c[nH]c4ccccc34)c(-c3cccs3)n1CC2 [Example 54, N—((R)-1-hydroxy-3-(1H-indol-3-yl)propan-2-yl)-8-methoxy-9-(2-methoxypyridin-3-yl)-3-(thiophen-2-yl)-5,6-dihydropyrrolo[2,1-a]isoquinoline-2-carboxamide]",< 100
4,"COc1cc2c(cc1C(C)=C(C)C)-c1cc(C(=O)N[C@@H](CO)Cc3c[nH]c4ccccc34)c(-c3cccc(F)c3)n1CC2 [Example 46, (R)-3-(3-fluorophenyl)-N-(1-hydroxy-3-(1H-indol-3-yl)propan-2-yl)-8-methoxy-9-(3-methylbut-2-en-2-yl)-5,6-dihydropyrrolo[2,1-a]isoquinoline-2-carboxamide]",100 to 1000
5,"COc1cc2c(cc1OC(C)C)-c1cc(C(=O)N[C@@H](CO)Cc3c[nH]c4ccccc34)c(C(=O)C(C)C)n1CC2 [Example 24, (R)—N-(1-hydroxy-3-(1H-indol-3-yl)propan-2-yl)-3-isobutyryl-9-isopropoxy-8-methoxy-5,6-dihydropyrrolo[2,1-a]isoquinoline-2-carboxamide]",< 100
6,"COc1cc2c(cc1C(=O)N(C)C)-c1cc(C(=O)N[C@@H](CO)Cc3c[nH]c4ccccc34)c(-c3cccc(F)c3)n1CC2 [Example 48, (R)-3-(3-fluorophenyl)-N2-(1-hydroxy-3-(1H-indol-3-yl)propan-2-yl)-8-methoxy-N9,N9-dimethyl-5,6-dihydropyrrolo[2,1-a]isoquinoline-2,9-dicarboxamide]",100 to 1000
7,"COc1cc2c(c(OC)c1OC)-c1cc(C(=O)N[C@@H](CO)Cc3c[nH]c4ccccc34)c(-c3cccs3)n1CC2 [Example 64, (R)—N-(1-hydroxy-3-(1H-indol-3-yl)propan-2-yl)-8,9,10-trimethoxy-3-(thiophen-2-yl)-5,6-dihydropyrrolo[2,1-a]isoquinoline-2-carboxamide]",< 100
8,"COc1cc2c(cc1-c1cnc(N(C)C)nc1)-c1cc(C(=O)N[C@@H](CO)Cc3c[nH]c4ccccc34)c(-c3cccs3)n1CC2 [Example 56, (R)-9-(2-(dimethylamino)pyrimidin-5-yl)-N-(1-hydroxy-3-(1H-indol-3-yl)propan-2-yl)-8-methoxy-3-(thiophen-2-yl)-5,6-dihydropyrrolo[2,1-a]isoquinoline-2-carboxamide]",< 100
9,"COc1cc2c(c(OC)c1OC)-c1cc(C(=O)N[C@@H](CO)Cc3c[nH]c4ccccc34)c(-c3cccc(F)c3)n1CC2 [Example 65, (R)-3-(3-fluorophenyl)-N-(1-hydroxy-3-(1H-indol-3-yl)propan-2-yl)-8,9,10-trimethoxy-5,6-dihydropyrrolo[2,1-a]isoquinoline-2-carboxamide]",< 100

# Next, values leading:
row,IC50 [nM],Structure (SMILES)
1,< 100,"COc1cc2c(cc1OC(C)C)-c1cc(C(=O)N[C@@H](CO)Cc3c[nH]c4ccccc34)c(-c3cccc(C)c3)n1CC2 [Example 14, (R)—N-(1-hydroxy-3-(1H-indol-3-yl)propan-2-yl)-9-isopropoxy-8-methoxy-3-m-tolyl-5,6-dihydropyrrolo[2,1-a]isoquinoline-2-carboxamide]"
2,< 100,"CCc1cc2c(cc1OC)CCn1c-2cc(C(=O)N[C@@H](CO)Cc2c[nH]c3ccccc23)c1-c1cccc(F)c1 [Example 43, (R)-9-ethyl-3-(3-fluorophenyl)-N-(1-hydroxy-3-(1H-indol-3-yl)propan-2-yl)-8-methoxy-5,6-dihydropyrrolo[2,1-a]isoquinoline-2-carboxamide]"
3,< 100,"COc1cc2c(cc1OC)-c1cc(C(=O)N[C@@H](CO)Cc3c[nH]c4ccccc34)c(-c3ccccc3)n1CC2 [Example 5, (R)—N-(1-hydroxy-3-(1H-indol-3-yl)propan-2-yl)-8,9-dimethoxy-3-phenyl-5,6-dihydropyrrolo[2,1-a]isoquinoline-2-carboxamide]"
4,< 100,"COc1cccc(-c2c(C(=O)N[C@@H](CO)Cc3c[nH]c4ccccc34)cc3n2CCc2cc(OC)c(OC)cc2-3)c1 [Example 12, (R)—N-(1-hydroxy-3-(1H-indol-3-yl)propan-2-yl)-8,9-dimethoxy-3-(3-methoxyphenyl)-5,6-dihydropyrrolo[2,1-a]isoquinoline-2-carboxamide]"
5,< 100,"COc1cc2c(cc1OC(C)C)-c1cc(C(=O)N[C@@H](CO)Cc3c[nH]c4ccccc34)c(-c3ccccc3F)n1CC2 [Example 18, 3-(2-fluorophenyl)-N—((R)-1-hydroxy-3-(1H-indol-3-yl)propan-2-yl)-9-isopropoxy-8-methoxy-5,6-dihydropyrrolo[2,1-a]isoquinoline-2-carboxamide]"
6,< 100,"COc1cc2c(cc1OC)-c1cc(C(=O)N[C@@H](CO)Cc3c[nH]c4ccccc34)c(-c3ccc(F)cc3)n1CC2 [Example 6, (R)—N-(1-hydroxy-3-(1H-indol-3-yl)propan-2-yl)-8,9-dimethoxy-3-(4-fluorophenyl)-5,6-dihydropyrrolo[2,1-a]isoquinoline-2-carboxamide]"
7,< 100,"COc1cc2c(cc1OC(C)C)-c1cc(C(=O)N[C@@H](CO)Cc3c[nH]c4ccccc34)c(-c3cccc(Cl)c3)n1CC2 [Example 16, (R)-3-(3-chlorophenyl)-N-(1-hydroxy-3-(1H-indol-3-yl)propan-2-yl)-9-isopropoxy-8-methoxy-5,6-dihydropyrrolo[2,1-a]isoquinoline-2-carboxamide]"
8,< 100,"COc1cc2c(cc1OC(C)C)-c1cc(C(=O)N[C@@H](CO)Cc3c[nH]c4ccccc34)c(-c3ccco3)n1CC2 [Example 19, (R)-3-(furan-2-yl)-N-(1-hydroxy-3-(1H-indol-3-yl)propan-2-yl)-9-isopropoxy-8-methoxy-5,6-dihydropyrrolo[2,1-a]isoquinoline-2-carboxamide]"
9,< 100,"CCCC(C)Oc1cc2c(cc1OC)CCn1c-2cc(C(=O)N[C@@H](CO)Cc2c[nH]c3ccccc23)c1-c1cccc(F)c1 (stereo partly drawn) [Example 37, 3-(3-fluorophenyl)-N—((R)-1-hydroxy-3-(1H-indol-3-yl)propan-2-yl)-8-methoxy-9-(pentan-2-yloxy)-5,6-dihydropyrrolo[2,1-a]isoquinoline-2-carboxamide]"
10,< 100,"COc1cc2c(c(OC)c1OC)CCn1c-2cc(C(=O)N[C@@H](CO)Cc2c[nH]c3ccccc23)c1-c1ccccc1 [Example 60, (R)—N-(1-hydroxy-3-(1H-indol-3-yl)propan-2-yl)-7,8,9-trimethoxy-3-phenyl-5,6-dihydropyrrolo[2,1-a]isoquinoline-2-carboxamide]"

# Reference: patent US10155259B2 (Merck Sharp & Dohme B.V., priority 2011, dated 2018)
